Assay results from patent US20250122193A1, “NOVEL PYRIDOCARBAZOLIUM COMPOUNDS AND MEDICAL USES THEREOF” (MyCural Therapeutics, priority 2021, published 2025).

How the values were obtained:
[1] = test system: MYCN-amplified SK-N-DZ neuroblastoma xenograft; assay: SK-N-DZ neuroblastoma xenograft
Experimental: A) Tumor growth of MDA-MB-231 xenografts in mice injected with 6.25 mg/kg MYCMI-7 or vehicle intratumorally twice a week until sacrificed. Tumor growth was monitored by measuring tumor size (mm^3) every 4th day. B) Survival curve of the mice in A) sacrificed when the tumors reached a volume of 1000 mm^3. C) Immunohistochemistry staining for MYC and apoptosis marker caspase 3 in MDA-MB-231 tumor tissue from vehicle- and MYCMI-7 treated animals at end point, D) Immunofluorescence staining of proliferation and apoptosis markers Ki67 and TUNEL, respectively, in MDA-MB-231 xenograft tumor tissue from vehicle- and MYCMI-7 treated animals at end point. E) MYCN-amplified SK-N-DZ neuroblastoma xenograft mice injected with 6.25 mg/kg MYCMI-7 or vehicle intratumorally twice a week until sacrificed. Tumor growth was monitored by measuring tumor volume (ml) daily. F) Survival curve of mice in E) sacrificed at a tumor volume of 1500 mm^3. G-H) H&E (G) and MYCN IHC (H) stainings of SK-N-DZ xenograft tumor tissue from vehicle- and MYCMI-7 treated animals at end point. A-H) At the end points, the last injection was done 3 hrs before sacrifice. Images were taken at 10× or 40× magnification.
For the xenograft transplantation mouse tumor models of breast cancer and neuroblastoma, 6-8 weeks old NOD/SCID mice (Taconic) or NMRI nu/nu (Scanbur) were injected s.c. with 5×10^6 MDA-MB-231 breast cancer cells or MYCN-amplified SK-N-DZ neuroblastoma cells. When tumors reached a size of 100-200 mm^3, mice started receiving treatment (6.25 mg/kg MYCMI-7) administered intratumorally (50 ml) twice per week. The last dose was administered 3 hrs before termination. Mice were sacrificed when the tumors had reached as size of 1000 mm^3 (MDA-MB-231) or 1500 mm^3 (SK-N-DZ). Tumors were collected and frozen in OCT (Cryomount, Histolab) or fixed in buffered 4% formaldehyde solution (Histolab) and paraffin-embedded.
Immunohistochemistry andimmunofluorescence: Apoptosis was visualized at the single-cell level on tumor cryosections using the TUNEL method using the In Situ Cell Death Detection Fluorescein-Roche kit and analyzed by fluorescence microscopy. Briefly, tumor cryosections were fixed in 4% paraformaldyde (PFA) and the assay was performed following the instructions from the manufacturer. Negative controls were run using the reagent without the TdT enzyme. Samples were mounted using Vectashield mounting medium (Vector) and DAPI was used as nuclear counterstaining. […] Visualization and image acquisition was done in a Zeiss microscope, and for panoramic views by a Vectra imaging system. For quantification, areas with positive TUNEL and Ki67 staining were measured using Image J software.

[2] = test system: MYC+RAS-transformed rat embryonic fibroblasts; assay: MYC+RAS transformation of REFs (foci, colonies in semi-solid medium); type: cell-based
Experimental: For anchorage-independent growth assay, cells were suspended in 250 μl 0.35% SeaPlaque agarose (InVitro) and seeded into 24 well plates which had previously been coated with a bottom layer of 250 μl 0.7% agarose. After 16 days, the colonies were stained with 100 μg/ml MTT (Sigma) overnight and colonies were counted. For foci formation assays, 3×10^4 REFs were seeded into 6 well plates. The following day the cells were transfected with the indicated plasmids (0.3 μg of each, a total of 0.6 μg per well). After another 24 hours compounds were added. The medium was changed every 2-3 days. When the cells had grown into confluency, medium containing 4% serum was added. After 14 days the number of foci was scored.

[3] = test system: p53 expression; assay: p53 expression by western blot; type: cell-based; settings: 5 μM, HCT116 and Kelly cells
Experimental: A) Measurement of MYC mRNA expression by RTqPCR after treatment with MYCMI-7 and different topoisomerase inhibitors at indicated concentrations. […] D) Western blot analysis of p53 and p21 expression after exposure to 5 μM MYCMI-7, ellipticine or camptothecin (CPT) in HCT116 cells. E) Western blot analysis of phospho-ATM, total ATM and p53 expression after exposure to indicated concentrations of MYCMI-7 and ellipticine in A375 cells after 3 hrs treatment.
For western blot equal amounts of proteins ([…]) were separated on a 4-12% SDS-PAGE gel. Proteins were transferred to Immobilion-P membrane (Millipore) and detected by immunostaining and chemoluminescence (Immobilion western HRP substrate; Millipore). For immunoprecipitations 500-1000 μg of protein was used. […] Briefly, cells were crosslinked with 1% formaldehyde on ice for 6 minutes. Nuclear chromatin was sonicated on ice to fragments from 0.3 kb to 0.5 kb. Nuclear chromatin equivalent to 2.5×10^7 cells was immunoprecipitated with 2 μg antibody.

[4] = target: T1, MYCN:MAX interaction (Homo sapiens, UniProt P04198); assay: split Gaussia luciferase (GLuc) assay, MYCN:MAX; type: cell-based; settings: 5 μM, HeLa cells
T1 construct: replacing the existing Zip-gene (GCN4) with full length MYC, MYCN or MAX cDNA; expressed in transfected cells; host or cells: HeLa
T1 sequence (P04198 1-464): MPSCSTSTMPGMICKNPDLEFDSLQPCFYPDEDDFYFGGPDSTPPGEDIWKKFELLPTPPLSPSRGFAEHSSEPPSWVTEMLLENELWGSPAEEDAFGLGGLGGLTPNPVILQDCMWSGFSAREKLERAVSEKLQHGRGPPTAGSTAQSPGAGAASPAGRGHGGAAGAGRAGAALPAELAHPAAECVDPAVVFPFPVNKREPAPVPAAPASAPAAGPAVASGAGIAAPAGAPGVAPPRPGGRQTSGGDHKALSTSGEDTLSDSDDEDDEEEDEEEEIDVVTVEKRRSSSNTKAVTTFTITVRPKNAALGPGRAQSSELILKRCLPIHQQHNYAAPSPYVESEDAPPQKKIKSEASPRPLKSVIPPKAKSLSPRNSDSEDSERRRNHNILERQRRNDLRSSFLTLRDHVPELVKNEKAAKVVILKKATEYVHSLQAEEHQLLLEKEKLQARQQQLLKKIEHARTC
Experimental: A) Molecular structure of MYCMI-7. B-E) split Gaussia luciferase (GLuc) assay. MYC or MYCN and MAX Gluc constructs were co-transfected into HeLa cells together with a firefly luciferase vector. 24 hours post transfection cells were treated with compounds, and after another 17-24 hours cells were harvested and both GLuc and firefly luciferase activities were measured. The mean of three different experiments is shown. Treatment with: B) 5 μM of MYCMI-7, 64 μM 10058-F4 or 5 μM JQ1, respectively, C) 6.5 μM MYCMI-7 on cells expressing MYC:MAX GLuc vs. GCN4:GCN4 GLuc, D) 5 μM MYCMI-7 and 5 μM ellipticine. E) 5 μM MYCMI-7 for various time points. F) in situ proximity ligation assay (isPLA). […] MYC:GAL4 was used as negative control in the isPLA assay. G) Quantification of isPLA dots. (H) Co-immunoprecipitation (co-IP) of endogenous MYC and MAX proteins from MCF7 cells after treatment with 5 μM MYCMI-7 at various times. IP=immunoprecipitation; W=western blot. I) Chromatin immunoprecipitation (ChIP) of MYC at the ODC1 target gene promoter after treatment of cells with 5 μM MYCMI-7 for 6 hours. J) MYC target gene ODC1 expression after treatment with 5 μM MYCMI-7, quantified by qPCR. […] L) Recombinant MYC bHLHZip protein domain immobilized onto a CM5 chip was subjected to various concentrations of MYCMI-7 and the complex of MYCbHLHZip-MYCMI-7 was measured as response units by SPR. […]
0.2-0.4 μg of each GLuc-construct together with 0.05 μg pCMV-LUC (firefly luciferase) were used per transfection in 12 well plates. […] After 60 min incubation at room temperature 20 μM D-luciferin was added (substrate of Firefly luciferase) and luminescence was measured in a Lumat LB9501 (Berthold) or OmegaFluostar (BMG Labtech) luminometer. Directly after, Gaussia luciferase substrate Coelenterazine (Promega) was added to a final concentration of 20 μM in a mixture with “Stop n' Glow” (Promega) and the luciferase activity was measured. The ratio between Gaussia and Firefly luciferase values were calculated and normalized to DMSO-treated control cells.

[5] = test system: wt and p53-deficient HCT116 cells; assay: WST1 assay in wt and p53-deficient HCT116 cells; type: cell-based; settings: titration
[6] = 6.25 mg/kg intratumoral twice a week

Compound: CCN(CC)CC[n+]1ccc2c(C)c3[nH]c4ccccc4c3c(C)c2c1 [MYCMI-7, 2-(5,11-Dimethyl-6H-25-pyrido[4,3-b]carbazol-2-yl)-N,N-diethylethanamine bromide]
- survival [1, 6]: significantly increased survival
- tumor growth [1, 6]: reduced tumor growth
- H&E staining of tumor tissue ([1]; mouse, in vivo): massive apoptosis and/or necrosis as well as hemorrhage
- MYCN expression in tumor cells (IHC) ([1]; mouse, in vivo): strong reduction in MYCN expression
- formation of transformed foci and colonies in semi-solid medium [2]: strongly inhibited
- p53 expression ([3]; early (3 hrs)): no effect
- p53 expression ([3]; late (24 hrs)): only a minor increase
- inhibition of MYCN:MAX GLuc interaction [4]: inhibited
- growth response or MYC expression, wt versus p53-deficient cells [5]: no difference
